In series [1] the test system is SK-BR-3 cells. Nature of the series: Cell proliferation, Cell Titer Glo, checkerboard design. The note with it: for EC50: Homo sapiens. It counts as cell-based. The protocol: The effect of all-trans retinoic acid (ATRA), a CYP26 inhibitor and their combination was studied using two HER2+ RARA+ breast cancer cell lines: AU565 and SK-BR-3. Cells were plated in a 96-well plate and treated with compounds in a “checkerboard” design. After 7 days the cell proliferation was determined using the Cell Titer Glo reagent (Promega).
(§1) This provides a strong rationale for the simultaneous targeting of both signaling pathways in breast cancer patients.
Background: In ATP-based viability assays light output follows the ATP content of the culture.

Series [2] concerns SK-BR-3 cells. Nature of the series: ATRA metabolism in breast cancer cells. In kind it is cell-based. Conditions: 2×10^6 SK-BR-3 cells treated with 100 nM ATRA, no CYP26 inhibitor. The protocol: To directly test whether ATRA induces its own metabolism, we treated 2×10^6 SK-BR-3 cells with 100 nM ATRA and determined the ATRA concentration after 24 hours. Significant metabolism of ATRA was found (FIG. 4), with the ATRA concentration dropping to 6 nM after 24 hrs.

For series [3], the system named is SK-BR-3 cells. Nature of the series: Apoptosis assay (Caspase 3/7 assay). It counts as cell-based.
Text: as §1

For series [4], the system named is SK-BR-3 breast cancer cells. The series can be described thus: Breast cancer xenograft study. The note with it: SK-BR-3 xenograft, immuno-compromised mice; CYP26 inhibitor 10 mg/kg po qd×5, Lapatinib 100 mg/kg po qd×5; compared to vehicle.
Description: Once palpable tumors were established in immuno-compromised mice, animals were randomized to four treatment groups: (1) Vehicle, (2) CYP26 inhibitor (10 mg/kg, po, qd×5), (3) the EGFR/HER2 inhibitor Lapatinib (100 mg/kg, po, qd×5) or (4) the combination of the two (10 mg/kg CYP26 inhibitor and 100 mg/kg Lapatinib).

Like-named read-outs stand apart in the source and are kept apart here.

By EC50 is commonly meant the midpoint of the concentration-response curve.

In the case of `CC1=C(/C=C/C(C)=C/C=C/C(C)=C/C(=O)O)C(C)(C)CCC1` [ATRA, all-trans retinoic acid], the EC50 with SK-BR-3 cells [1] (168 h, SK-BR-3, 7 days, ATRA alone, estimated, read-out: EC50, inhibition of cell growth) was ~40 nM. Further, the “effect on cell growth” value with SK-BR-3 cells [1] (SK-BR-3, lapatinib/ATRA experiment) is given as “inhibited breast cancer cell growth”. Moreover, the “ATRA concentration after 24 hours” value with SK-BR-3 cells [2] was 6 nM. Further, the “effect on Caspase 3/7 activity” value in the series on SK-BR-3 cells [3] (SK-BR-3, synergy analyzed with Bliss additivity model) is “small effect”.
For the molecule `CS(=O)(=O)CCNCc1ccc(-c2ccc3ncnc(Nc4ccc(OCc5cccc(F)c5)c(Cl)c4)c3c2)o1` [lapatinib], the “tumor progression / tumor growth inhibition” value in series [4] is “Markedly reduced tumor progression”. For the same molecule, the EC50 in the series on SK-BR-3 cells [1] (SK-BR-3, lapatinib alone, read-out: EC50, inhibition of cell growth in the absence of ATRA) came to 64 nM. Also, the “induction of Caspase 3/7 activity” value in the series with SK-BR-3 cells [3] (SK-BR-3, 24 hours incubation, absence of ATRA) is listed as ~2 fold.

The record behind these values is US20160038490A1, “COMPOSITIONS AND METHODS FOR TREATING DYSPROLIFERATIVE DISEASES” (ANGION BIOMEDICA CORP., priority 2012, published 2016).
